# In US7166744B2, “Retinoid derivatives and methods for producing said compounds and anti-cancer pharmaceutical composition comprising said compounds” (Chebigen Co., Ltd., priority 2001, dated 2007):
# pIC50: −log10 of the molar value.
# Experiments:
# Format in all cases: cell-based
# [1] = tested on: DLD-1 colon cancer cells; test: MTT proliferation assay, DLD-1
# Description: (§1) The effects of test compounds on proliferation of various cancer cells was examined by 3-(4,5-dimethylthiazol-2-yl)-2,5-diphenyltetrazolium bromide (MTT, Sigma) assay in a dose dependent manner. In the MTT assay, colon, liver, cervix, ovary, and breast cancer cell lines were treated with test compounds at various concentrations. Living cancer cells reduce MTT to dark blue MTT formazan that would be measured by absorbance.
# (§2) Colon cancer cells, HCT116, DLD-1 and HT29, cervix cancer cells, HeLa and CaSki, ovary cancer cells, SKOV-3, 2774 and OVCAR-3, liver cancer cells, SK-Hep-1, PLCPRF5 and HepG2, and breast cancer cells, ZR75-1 and MDA-MB 231 were seeded at an initial density of 3000 cells per well in 96-well plates. After attachment of cells to the walls of the wells, the medium containing fresh retinoid was treated with various concentrations (0.5 μM, 1 μM, 2.5 μM, 5 μM, 10 μM) for 48 hours. 50 μl of MTT solution (2 mg/ml in PBS) was added to cell culture media. The reaction micture was incubated at 37° C. in a 5% CO2 atmosphere for 4 hours. The supernatant was removed and 150 μl of DMSO was added. The optical density was measured spectrophotometrically at 550 nm. […] For other retinoid derivatives according to the present invention, absorbances were measured by this procedure and IC50 values, concentrations required for 50% growth inhibition, were determined.
# [2] = tested on: HCT116 colon cancer cells; test: Trypan blue surviving cell count, HCT116; details: for relative surviving cells (%): trypan blue
# Text: (§3) Surviving cells, which had not be stained by trypan blue were counted and the results are shown in Table 3 as relative surviving cells (%).
# [3] = tested on: SK-Hep-1 liver cancer cells; test: MTT proliferation assay, SK-Hep-1
# Description: as §1, §2
# [4] = tested on: CaSki cervix cancer cells; test: MTT proliferation assay, CaSki; details: 48 hours, uterine cancer
# Description: as §1, §2
# [5] = target: T1, RARα (Homo sapiens, UniProt P10276); test: CAT reporter assay, RARα; details: 1 μM, control = 1.0; for expression level of CAT enzyme, RARα −: column '−'
# T1 construct: expressed in transfected cells
# T1 sequence (P10276 1-462): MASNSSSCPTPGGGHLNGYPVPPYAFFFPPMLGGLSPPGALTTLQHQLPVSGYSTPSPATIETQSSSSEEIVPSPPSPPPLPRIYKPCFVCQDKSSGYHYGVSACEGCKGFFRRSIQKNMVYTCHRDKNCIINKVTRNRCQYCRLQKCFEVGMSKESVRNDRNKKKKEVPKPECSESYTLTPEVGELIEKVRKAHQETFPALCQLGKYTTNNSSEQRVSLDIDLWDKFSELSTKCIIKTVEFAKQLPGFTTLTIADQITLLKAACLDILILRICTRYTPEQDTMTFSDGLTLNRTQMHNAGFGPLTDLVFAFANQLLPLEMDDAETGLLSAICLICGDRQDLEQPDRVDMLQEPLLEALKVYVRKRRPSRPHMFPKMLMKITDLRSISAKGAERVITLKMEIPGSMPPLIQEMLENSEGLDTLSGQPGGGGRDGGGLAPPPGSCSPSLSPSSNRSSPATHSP
# Text: (§4) In order to confirm the effect of KCBG60 according to the present invention on retinoid receptor activity, cells were cotransfected with expression vectors of receptor subfamilies and reporter genes. As the reporter gene, chloramphenicol acetyltransferase (CAT) with a transcription control site reactive to respective receptors was used.
# [6] = target: T2, RARβ (Homo sapiens, UniProt P10826); test: CAT reporter assay, RARβ; details: 1 μM, control = 1.0; for expression level of CAT enzyme, RARβ −: column '−'
# T2 construct: expressed in transfected cells
# T2 sequence (P10826 1-455): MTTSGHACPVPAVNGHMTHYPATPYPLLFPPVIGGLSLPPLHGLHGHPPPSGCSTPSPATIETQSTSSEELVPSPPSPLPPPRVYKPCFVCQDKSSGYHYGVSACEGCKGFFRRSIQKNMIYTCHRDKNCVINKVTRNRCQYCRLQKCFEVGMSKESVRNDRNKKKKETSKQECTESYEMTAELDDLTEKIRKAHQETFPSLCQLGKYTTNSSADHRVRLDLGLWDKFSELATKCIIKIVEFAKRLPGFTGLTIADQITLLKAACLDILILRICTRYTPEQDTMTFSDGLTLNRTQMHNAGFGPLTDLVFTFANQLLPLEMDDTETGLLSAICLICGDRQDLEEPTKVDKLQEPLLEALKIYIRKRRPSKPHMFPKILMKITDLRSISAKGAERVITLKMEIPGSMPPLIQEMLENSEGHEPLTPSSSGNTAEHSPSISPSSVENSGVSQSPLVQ
# Text: as §4
# [7] = tested on: PLCPRF5 liver cancer cells; test: MTT proliferation assay, PLCPRF5
# Description: as §1, §2
# [8] = tested on: MDA-MB-231 breast cancer cells; test: MTT proliferation assay, MDA-MB-231
# Description: as §1, §2
# [9] = target: T3, RARγ (Homo sapiens, UniProt P13631); test: CAT reporter assay, RARγ; details: 1 μM, control = 1.0; for expression level of CAT enzyme, RARγ −: column '−'
# T3 construct: expressed in transfected cells
# T3 sequence (P13631 1-454): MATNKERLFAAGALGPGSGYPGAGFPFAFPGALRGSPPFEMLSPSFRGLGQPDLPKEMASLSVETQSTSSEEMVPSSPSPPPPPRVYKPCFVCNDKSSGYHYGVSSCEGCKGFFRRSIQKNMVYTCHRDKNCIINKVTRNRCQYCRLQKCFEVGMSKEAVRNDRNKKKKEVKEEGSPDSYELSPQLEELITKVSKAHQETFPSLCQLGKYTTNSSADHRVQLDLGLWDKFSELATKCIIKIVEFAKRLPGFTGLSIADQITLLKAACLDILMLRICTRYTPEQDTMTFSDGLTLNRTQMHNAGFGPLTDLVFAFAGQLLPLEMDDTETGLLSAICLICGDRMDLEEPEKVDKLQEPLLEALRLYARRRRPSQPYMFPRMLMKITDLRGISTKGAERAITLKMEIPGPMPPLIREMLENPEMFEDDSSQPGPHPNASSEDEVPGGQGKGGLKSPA
# Text: as §4
# [10] = tested on: SKOV-3 ovary cancer cells; test: MTT proliferation assay, SKOV-3; details: ovarian cancer
# Description: as §1, §2
# [11] = tested on: colon cancer cells; test: MTT proliferation assay, colon cancer cells (Table 1); details: 48 hours, concentration required for 50% growth inhibition, read-out: IC50, activities of various retinoid derivatives in colon cancer cells
# Description: as §1, §2
# [12] = tested on: SK-Hep-1 liver cancer cells; test: Trypan blue surviving cell count, SK-HEP-1
# Text: as §3
pIC50 [11],pIC50 ([1]; 48 hours),pIC50 ([3]; 48 hours),pIC50 [4],pIC50 ([8]; 48 hours),pIC50 ([10]; 48 hours),Molecule,"expression level of CAT enzyme, RARα + [5]","expression level of CAT enzyme, RARα − [5]","expression level of CAT enzyme, RARβ + [6]","expression level of CAT enzyme, RARβ − [6]","expression level of CAT enzyme, RARγ + [9]","expression level of CAT enzyme, RARγ − [9]","relative surviving cells (%) ([2]; HCT116, 0.5 μM)","relative surviving cells (%) ([2]; HCT116, 1 μM)","relative surviving cells (%) ([2]; HCT116, 5 μM)","relative surviving cells (%) ([2]; HCT116, 10 μM)","relative surviving cells (%) ([12]; SK-HEP-1, 0.5 μM)","relative surviving cells (%) ([12]; SK-HEP-1, 1 μM)","relative surviving cells (%) ([12]; SK-HEP-1, 5 μM)","relative surviving cells (%) ([12]; SK-HEP-1, 10 μM)",other results
5.52,5.22,5.35,6.30,5.46,6.30,"CCCC(=O)Oc1cc(O)ccc1NC(=O)/C=C(C)/C=C/C=C(C)/C=C/C1=C(C)CCCC1(C)C [KCBG10, 2.2-[(2E,4E,6E,8E)-3,7-Dimethyl-9-(2,6,6-trimethylcyclohex-1-enyl)-nona-2,4,6,8-tetraenoylamino]-5-hydroxyphenylbutanoate]",–,–,–,–,–,–,–,–,–,–,–,–,–,–,pIC50 ([7]; 48 hours): 4.92
6.52,5.82,6.10,5.52,5.48,5.52,"CCCC(=O)Nc1cc(NC(=O)/C=C(C)/C=C/C=C(C)/C=C/C2=C(C)CCCC2(C)C)ccc1O [KCBG41, (2E,4E,6E,8E)-[3,7-dimethyl-9-(2,6,6-trimethylcyclohex-1-enyl)-nona-2,4,6,8-tetraenoylamino]-(3-butyrylamino-4-hydroxy)phenylamide]",–,–,–,–,–,–,–,–,–,–,–,–,–,–,–

# Second part, the molecule before the results:
Molecule,pIC50 [11],pIC50 ([1]; 48 hours),pIC50 ([3]; 48 hours),pIC50 [4],pIC50 ([8]; 48 hours),pIC50 ([10]; 48 hours),"expression level of CAT enzyme, RARα + [5]","expression level of CAT enzyme, RARα − [5]","expression level of CAT enzyme, RARβ + [6]","expression level of CAT enzyme, RARβ − [6]","expression level of CAT enzyme, RARγ + [9]","expression level of CAT enzyme, RARγ − [9]","relative surviving cells (%) ([2]; HCT116, 0.5 μM)","relative surviving cells (%) ([2]; HCT116, 1 μM)","relative surviving cells (%) ([2]; HCT116, 5 μM)","relative surviving cells (%) ([2]; HCT116, 10 μM)","relative surviving cells (%) ([12]; SK-HEP-1, 0.5 μM)","relative surviving cells (%) ([12]; SK-HEP-1, 1 μM)","relative surviving cells (%) ([12]; SK-HEP-1, 5 μM)","relative surviving cells (%) ([12]; SK-HEP-1, 10 μM)",other results
"CC1=C(/C=C/C(C)=C/C=C/C(C)=C/C(=O)O)C(C)(C)CCC1 [ATRA, All-trans-retinoic acid, reference compound]",4.70,–,–,–,–,–,66.7,17.3,65.2,17.3,49.3,14.1,–,–,–,–,–,–,–,–,"pIC50 ([1]; Homo sapiens, DLD-1, 48 hours): 4.70; inhibition at 10 µM ([2]; Homo sapiens, HCT-116, HCT116, 10 μM, read-out: inhibition of proliferation): 10 to 30%; pIC50 ([3]; Homo sapiens, SK-HEP1, 48 hours): < 3.30; pIC50 ([4]; Homo sapiens, Ca-Ski): 4.70; pIC50 ([7]; Homo sapiens, PLC-PRF-5, 48 hours): < 3.30; pIC50 ([8]; Homo sapiens, MDA-MB-231, 48 hours): < 4.00; pIC50 ([10]; Homo sapiens, SK-OV-3, 48 hours): < 4.00"
"CC1=C(/C=C/C(C)=C/C=C/C(C)=C/C(=O)Nc2ccc(O)cc2)C(C)(C)CCC1 [HPR, (2E,4E,6E,8E)-[3,7-dimethyl-9-(2,6,6-trimethylcyclohex-1-enyl)-nona-2,4,6,8-tetraenoylamino]-4-hydroxyphenylamide]",5.10 to 5.22,5.05,< 4.00,5.70,5.00,5.70,30.4,9.9,25.3,9.1,24.8,4.5,91%,70%,45%,13%,90%,73%,45%,15%,pIC50 ([7]; 48 hours): 4.70
CCCC(=O)Oc1ccc(NC(=O)/C=C(C)/C=C/C=C(C)/C=C/C2=C(C)CCCC2(C)C)cc1 [KCBG60],–,–,–,–,–,–,1.1,0.7,1.0,0.8,1.9,0.6,90%,75%,45%,10%,90%,75%,48%,10%,"concentration at which inhibition of proliferation began ([2]; HCT116): 0.5 µM; inhibition of proliferation ([2]; HCT116, 10 μM): more than 90%"
phenyl butylate,–,–,–,–,–,–,0.8,0.7,0.9,0.7,1.1,0.8,103%,103%,95%,90%,102%,103%,95%,87%,–
